Measurements: patent US6608086B2, “Dihydropyridines and new uses thereof” (Synaptic Pharmaceutical Corporation, priority 1993, dated 2003)

How the values were obtained:
[1] = target: T1, α1B Human Adrenergic Receptor (Homo sapiens, UniProt P35368); test: Radioligand binding, [3H]prazosin, cloned human α1B adrenergic receptor; conditions: cloned human receptor, LM(tk-) cell membranes, mean, read-out: PKi alpha-1 1b (converted)
T1 construct: The entire coding region of α1B (1563 bp); expressed in transfected cells
T1 sequence (P35368 1-520): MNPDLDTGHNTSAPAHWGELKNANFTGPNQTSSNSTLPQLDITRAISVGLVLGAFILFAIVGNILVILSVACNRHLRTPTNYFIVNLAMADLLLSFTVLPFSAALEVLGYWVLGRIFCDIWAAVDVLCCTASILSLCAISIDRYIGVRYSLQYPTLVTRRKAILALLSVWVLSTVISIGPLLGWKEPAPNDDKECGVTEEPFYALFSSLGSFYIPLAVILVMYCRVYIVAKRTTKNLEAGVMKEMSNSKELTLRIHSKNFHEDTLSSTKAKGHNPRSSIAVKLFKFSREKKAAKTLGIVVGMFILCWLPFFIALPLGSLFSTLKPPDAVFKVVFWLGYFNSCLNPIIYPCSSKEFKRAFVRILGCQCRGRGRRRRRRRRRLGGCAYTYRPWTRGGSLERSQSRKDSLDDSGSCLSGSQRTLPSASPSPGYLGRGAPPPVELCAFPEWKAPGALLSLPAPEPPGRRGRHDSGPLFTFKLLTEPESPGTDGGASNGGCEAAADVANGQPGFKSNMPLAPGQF
Procedure: (§1) The protocols for these experiments are given below.
(§2) These cell lines were prepared by transfecting the cloned cDNA or cloned genomic DNA or constructs containing both genomic DNA and cDNA encoding the human α-adrenergic receptors as follows:
α1B Human Adrenergic Receptor:
The construct involved ligating the full-length containing EcoRI brainstem cDNA fragment from λ ZapII into the expression vector. Stable cell lines were selected as described above.
(§3) Radioligand Binding Assays:
(§4) Transfected cells from culture flasks were scraped into 5 ml of 5 mM Tris-HCl, 5 mM EDTA, pH 7.5, and lysed by sonication. The cell lysates were centrifuged at 1000 rpm for 5 min at 4° C., and the supernatant was centrifuged at 30,000× g for 20 min at 4° C. The pellet was suspended in 50 mM Tris-HCl, 1 mM MgCl2, and 0.1% ascorbic acid at pH 7.5. Binding of the α1 antagonist [^3H]prazosin (0.5 nM, specific activity 76.2 Ci/mmol) to membrane preparations of LM(tk−) cells was done in a final volume of 0.25 ml and incubated at 37° C. for 20 min. Nonspecific binding was determined in the presence of 10 μM phentolamine. The reaction was stopped by filtration through GF/B filters using a cell harvester.

[2] = target: T2, α1C Human Adrenergic Receptor (Homo sapiens, UniProt P35348); test: Radioligand binding, [3H]prazosin, cloned human α1C adrenergic receptor; conditions: cloned human receptor, LM(tk-) cell membranes, mean, read-out: PKi alpha-1 1c (converted)
T2 construct: The entire coding region of α1C (1401 bp); expressed in transfected cells
T2 sequence (P35348 1-466): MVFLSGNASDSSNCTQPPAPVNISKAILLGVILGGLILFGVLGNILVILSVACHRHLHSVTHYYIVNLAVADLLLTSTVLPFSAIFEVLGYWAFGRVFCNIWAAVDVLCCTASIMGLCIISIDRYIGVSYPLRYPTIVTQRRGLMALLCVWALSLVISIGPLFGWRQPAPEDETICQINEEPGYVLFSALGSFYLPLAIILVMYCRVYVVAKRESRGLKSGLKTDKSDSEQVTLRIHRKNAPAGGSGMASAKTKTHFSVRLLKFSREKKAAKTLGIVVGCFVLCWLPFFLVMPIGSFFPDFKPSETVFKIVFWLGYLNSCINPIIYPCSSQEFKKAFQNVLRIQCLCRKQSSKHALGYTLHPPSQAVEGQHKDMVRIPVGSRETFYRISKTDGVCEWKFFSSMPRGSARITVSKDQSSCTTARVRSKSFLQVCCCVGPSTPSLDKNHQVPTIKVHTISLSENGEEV
Procedure: as §1, §2
α1C Human Adrenergic Receptor:
The construct involved ligating three partial overlapping fragments: a 5′, 0.6 kb HincII genomic clone, a central 1.8 EcoRI hippocampal cDNA clone, and a 3′ 0.6Kb PstI genomic clone. The hippocampal cDNA fragment overlaps with the 5′ and 3′ genomic clones so that the HincII and PstI sites at the 5′ and 3′ ends of the cDNA clone, respectively, were utilized for ligation. This full-length clone was cloned into the KpnI site of the expression vector, using the 5′ and 3′ KpnI sites of the fragment, derived from vector (i.e., pBluescript) and 3′-untranslated sequences, respectively. Stable cell lines were selected as described above.
as §3, §4

[3] = target: T3, α1A Human Adrenergic Receptor (Homo sapiens, UniProt P25100); test: Radioligand binding, [3H]prazosin, cloned human α1A adrenergic receptor; conditions: [3H]prazosin, cloned human receptor, LM(tk-) cell membranes; mean; read-out: PKi alpha-1 1a (converted)
T3 construct: The entire coding region of α1A (1719 bp); expressed in transfected cells
T3 sequence (P25100 1-572): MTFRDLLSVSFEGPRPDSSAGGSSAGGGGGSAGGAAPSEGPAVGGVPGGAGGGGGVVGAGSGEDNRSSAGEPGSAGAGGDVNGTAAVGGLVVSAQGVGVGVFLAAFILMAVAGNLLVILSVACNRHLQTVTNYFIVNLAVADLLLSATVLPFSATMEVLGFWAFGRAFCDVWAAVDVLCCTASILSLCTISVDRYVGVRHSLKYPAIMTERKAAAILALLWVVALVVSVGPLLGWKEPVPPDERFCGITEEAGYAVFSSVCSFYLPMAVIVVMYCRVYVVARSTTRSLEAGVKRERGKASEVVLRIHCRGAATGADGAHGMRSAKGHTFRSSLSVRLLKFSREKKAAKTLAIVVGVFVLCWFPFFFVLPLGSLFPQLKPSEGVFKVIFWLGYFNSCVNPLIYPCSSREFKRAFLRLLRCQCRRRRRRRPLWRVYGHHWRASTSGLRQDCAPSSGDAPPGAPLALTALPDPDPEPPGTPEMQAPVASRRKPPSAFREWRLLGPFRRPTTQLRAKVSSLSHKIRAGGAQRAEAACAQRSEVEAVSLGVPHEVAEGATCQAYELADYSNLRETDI
Procedure: as §1, §2
α1A Human Adrenergic Receptor:
The cells were grown, in a controlled environment (37° C., 5% CO2), as monolayers in Dulbecco's modified Eagle's Medium (GIBCO, Grand Island, N.Y.) containing 25 mM glucose and supplemented with 10% bovine calf serum, 100 units/ml penicillin g, and 100 μg/ml streptomycin sulfate.
as §3, §4

Row | SMILES | Ki [1] [nM] | Ki [2] [nM] | Ki [3] [nM] | melting point
1 | CCOC(=O)C1(c2ccccc2)CCN(CCCNC(=O)C2=C(CC)NC(CC)=C(C(=O)NC)C2c2ccc([N+](=O)[O-])cc2)CC1 (stereo not drawn) [Example 181, 2,6-Diethyl-1,4-dihydro-3-{N-[3-(4-ethoxycarbonyl-4-phenylpiperidin-1-yl)propyl]}carboxamido-5-(N-methyl) carboxamido-4-(4-nitrophenyl)pyridine] | 1070 | 4.07 | 3470 | 95 to 97 °C
2 | CCOC(=O)C1(c2ccccc2)CCN(CCCNC(=O)C2=C(COCCN=[N+]=[N-])NC(CC)=C(C(=O)O)C2c2ccc([N+](=O)[O-])cc2)CC1 (stereo not drawn) [Example 189] | 1410 | 26.3 | 4680 | 109 to 110 °C
3 | CCOC(=O)C1(c2ccccc2)CCN(CCCNC(=O)C2=C(COCCN=[N+]=[N-])NC(CC)=C(C(N)=O)C2c2ccc([N+](=O)[O-])cc2)CC1 (stereo not drawn) [Example 190, 2-[(2-Azidoethoxy)methyl]-5-carboxamido-3-{N-[3-(4-ethoxycarbonyl-4-phenylpiperidin-1-yl)propyl]}carboxamido-1,4-dihydro-6-ethyl-4-(4-nitrophenyl)pyridine] | 708 | 5.37 | 1350 | 63 to 64 °C
4 | CCOC(=O)C1(c2ccccc2)CCN(CCCNC(=O)C2=C(COCCN=[N+]=[N-])NC(CC)=C(C(=O)NC)C2c2ccc([N+](=O)[O-])cc2)CC1 (stereo not drawn) [Example 191, 2-[(2-Azidoethoxy)methyl]-3-{N-[3-(4-ethoxycarbonyl-4-phenyl-piperidin-1-yl)propyl]}carboxamido-1,4-dihydro-6-ethyl-5-(N-methyl)carboxamido-4-(4-nitrophenyl)pyridine] | 1350 | 8.13 | 1950 | 67 to 68 °C
5 | CCOC(=O)C1(c2ccccc2)CCN(CCCNC(=O)C2=C(COCCN=[N+]=[N-])NC(CC)=C(C(=O)OC)C2c2ccc([N+](=O)[O-])cc2)CC1 (stereo not drawn) [Example 195, 2-[(2-Azidoethoxy)methyl]-3-{N-[3-(4-ethoxycarbonyl-4-phenylpiperidin-1-yl)propyl]}carboxamido-1,4-dihydro-6-ethyl-5-methoxycarbonyl-4-(4-nitrophenyl)pyridine] | 129 | 7.08 | 288 | 56 to 57 °C
6 | CC1=C(C(N)=O)C(c2ccc([N+](=O)[O-])cc2)C(C(=O)NCCCN2CCC(C#N)(c3ccccc3)CC2)=C(COCCN=[N+]=[N-])N1 (stereo not drawn) [Example 214, 2-((2-Azidoethyl)oxy)methyl-5-carboxamido-3-(N-(3-(4-cyano-4-phenylpiperidin-1-yl)propyl)) carboxamido-1,4-dihydro-6-methyl-4-(4-nitro)phenylpyridine] | 776 | 6.17 | 2570 | 81 °C (dec.)
